US10919896B2, “Preparation and uses of pyrimidinone derivatives” (Cancer Research Technology Limited, priority 2016, dated 2021)

Each compound was assayed against Cdc7/ASK (Homo sapiens, UniProt O00311) (assay: Cdc7 Biochemical Assay Method 1: 384 well ELISA, whole protein substrate MCM2, antibody against Phospho MCM2 (S53)). Conditions: 2 μM ATP, read-out: Biochemical Method 1 (pIC50) (converted).
Set-up: purchased
Procedure: This protocol describes a method for assaying Cdc7/ASK for activity. The assay is a 384 well ELISA assay, utilising a whole protein substrate (MCM2) and an antibody against Phospho MCM2 (S53). This site is thought to be specific to Cdc7/ASK phosphorylation and the assay has been validated using knockout mutants. Reagents • TBS: 25 mM Tris pH 7.2, 150 mM NaCl. (Dilute 10× stock by 1:10). • Wash Buffer: TBS+0.05% Tween 20. (Add 100 mL 1 M Tris pH 7.2, 120 mL 5 M NaCl and 2 mL 100% Tween 20 per 4 L). • Kinase Reaction Buffer: 50 mM Tris-HCl pH 8.5, 10 mM MgCl2, 1 mM DTT. (Dilute 10× stock by 1:10 and add 100 μL 1M DTT per 100 mL prior to assay). • Diethanolamine Buffer: 1 M diethanolamine pH 9.8, 0.5 mM MgCl2. • Stop Solution: 1 M NaOH. • MCM2 was expressed and purified in-house and used in the assay at a final assay concentration of 436 ng/well. • Cdc7/ASK is purchased from commercial suppliers and used in the assay at a final assay concentration of 37.97 ng/well or 20.63 nM. • ATP used as a final assay concentration of 2 μM. • Primary Antibody: Rabbit anti-Phospho MCM2 (S53 Antibody (BL3353)), is purchased from commercial suppliers at 0.2 mg/mL and used at a final assay concentration by diluting 1:800 in TBS. • Secondary Antibody: Anti-Rabbit/AP Antibody is supplied is purchased from commercial suppliers at 1 mg/mL and used at a final assay concentration by diluting 1:2000 in TBS. • Development Reagent: Dissolve one 20 mg PNPP tablet (Sigma, product […], 20 mg per tablet) per 20 mL diethanolamine Buffer (or one 5 mg PNPP tablet per 5 mL diethanolamine buffer). Cover in foil and leave shaking on a roller shaker at room temperature for up to an hour to dissolve. Methods • 1. Add 20 μL 1× working stock of Substrate (MCM2) in TBS to all wells of a clear, 384 well, Nickel-chelate microplate to give a final concentration of […]. Incubate at room temperature for at least 1 hour. Plates can be pre-coated for 1 hour and stored at 4° C. for up to 8 days. • 2. Wash with TBS+0.05% Tween 20 (80 μL×3). • 3. Add 2 μL 10× test compounds, including the positive control, in 40% DMSO/water to 'test' wells. Add 2 μL 40% DMSO/water to 'control' and 'blank' wells. The final DMSO concentration will be 4%. • 4. Add 13 μL CDC7/ASK Kinase (1.5× stock) in Kinase Reaction Buffer to 'test' and 'control' wells to give a final concentration of […]. Add 13 μL Kinase Reaction Buffer to 'blank' wells. • 5. Add 5 μL ATP (4× stock) in Kinase Reaction Buffer to all wells to give a final concentration of 2 μM. • 6. Incubate at room temperature for 90 minutes. • 7. Wash with TBS+0.05% Tween 20 (80 μL×3). • 8. Add 20 μL 1× working solution of Primary Antibody in TBS to all wells. Incubate at room temperature for 30 minutes. • 9. Wash with TBS+0.05% Tween 20 (80 μL×3). • 10. Add 20 μL 1× working solution of Secondary Antibody in TBS to all wells. Incubate at room temperature for 30 minutes. • 11. Wash with TBS+0.05% Tween 20 (80 μL×3). • 12. Add 20 μL 1× Development Reagent to all wells. • 13. Incubate at room temperature for 2 hours. Stop the reaction by adding 20 μL Stop Solution to all wells and record Absorbance on a Pherastar plate reader. Percentage inhibition values were calculated from absorbance values, using the no compound (DMSO) and no enzyme control values as 0% and 100% inhibition, respectively. IC50 determination was performed with ExcelFit software (IDBS) using curve fit 205. Z' factors were determined for each plate tested and were all above 0.5. Method 2

Sequence of Cdc7/ASK (O00311 whole entry): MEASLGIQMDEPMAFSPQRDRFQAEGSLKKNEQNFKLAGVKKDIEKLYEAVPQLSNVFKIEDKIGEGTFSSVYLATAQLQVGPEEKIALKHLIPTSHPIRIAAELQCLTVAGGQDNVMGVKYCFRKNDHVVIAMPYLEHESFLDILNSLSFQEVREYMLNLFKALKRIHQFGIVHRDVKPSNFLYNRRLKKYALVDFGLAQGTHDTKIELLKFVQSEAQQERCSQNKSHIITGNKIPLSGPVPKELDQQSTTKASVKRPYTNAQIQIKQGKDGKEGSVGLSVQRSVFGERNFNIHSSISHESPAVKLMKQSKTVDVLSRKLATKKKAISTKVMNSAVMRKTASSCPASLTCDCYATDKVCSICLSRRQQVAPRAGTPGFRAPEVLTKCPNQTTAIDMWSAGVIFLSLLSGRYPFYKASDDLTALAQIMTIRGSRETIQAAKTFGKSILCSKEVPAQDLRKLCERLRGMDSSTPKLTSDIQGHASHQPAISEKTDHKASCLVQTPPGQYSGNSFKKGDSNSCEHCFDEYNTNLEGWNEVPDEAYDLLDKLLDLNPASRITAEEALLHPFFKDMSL
Sequence of Cdc7/ASK (Q9UBU7 whole entry partner): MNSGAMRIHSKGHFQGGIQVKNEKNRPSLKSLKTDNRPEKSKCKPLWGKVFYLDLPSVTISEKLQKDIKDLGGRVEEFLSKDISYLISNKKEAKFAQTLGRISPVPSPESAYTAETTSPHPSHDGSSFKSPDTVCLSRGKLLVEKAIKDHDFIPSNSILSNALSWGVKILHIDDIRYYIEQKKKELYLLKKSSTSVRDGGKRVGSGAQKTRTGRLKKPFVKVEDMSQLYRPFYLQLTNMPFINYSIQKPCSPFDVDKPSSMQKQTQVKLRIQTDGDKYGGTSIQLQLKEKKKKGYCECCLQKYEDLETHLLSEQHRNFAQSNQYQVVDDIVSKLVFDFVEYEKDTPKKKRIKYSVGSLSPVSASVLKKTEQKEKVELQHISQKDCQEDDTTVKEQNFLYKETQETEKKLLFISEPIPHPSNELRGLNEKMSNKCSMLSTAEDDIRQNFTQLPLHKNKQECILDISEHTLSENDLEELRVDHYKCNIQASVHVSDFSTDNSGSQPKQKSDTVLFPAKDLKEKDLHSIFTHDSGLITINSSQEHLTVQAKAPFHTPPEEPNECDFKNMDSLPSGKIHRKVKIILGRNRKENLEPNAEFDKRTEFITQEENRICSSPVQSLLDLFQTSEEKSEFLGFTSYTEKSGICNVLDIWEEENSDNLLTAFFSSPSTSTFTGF

Structure (SMILES)	IC50
O=c1[nH]c(-c2ccncc2)nc(N2CCCC2)c1Cl [Compound 30]	132 nM
O=c1[nH]c(-c2ccncc2)nc(C2CCNCC2)c1Cl [Compound 2, 5-Chloro-6-piperidin-4-yl-2-pyridin-4-yl-3H-pyrimidin-4-one]	1.74 nM
O=C(c1ccccn1)N1CCC(c2nc(-c3ccncc3)[nH]c(=O)c2Cl)CC1 [Compound 45]	8.71 nM
O=c1[nH]c(-c2ccncc2)nc(N2CCN3CC(F)(F)C[C@H]3C2)c1Cl [Compound 149]	13.2 nM
COCCC1CN(c2nc(-c3ccncc3)[nH]c(=O)c2Cl)CCO1 (centres unmarked) [Compound 99]	85.1 nM
O=C(N1CCC(c2nc(-c3ccncc3)[nH]c(=O)c2Cl)CC1)C(F)(F)F [Compound 38, 5-chloro-2-(4-pyridyl)-4-[1-(2,2,2-trifluoroacetyl)-4-piperidyl]-1H-pyrimidin-6-one]	5.62 nM
NC(=O)C1CCN(c2nc(-c3ccncc3)[nH]c(=O)c2Cl)CC1 [Compound 100]	12 nM
O=c1[nH]c(-c2ccncc2)nc(N2CC[C@@H](F)C2)c1Cl [Compound 133]	56.2 nM
CC1CN(c2nc(-c3ccncc3)[nH]c(=O)c2Cl)CC(C)N1 (centres unmarked) [Compound 108]	174 nM
O=c1[nH]c(-c2ccncc2)nc(C2(F)CCCNC2)c1Cl (centres unmarked) [Compound 19]	3.39 nM
CS(=O)(=O)N1CCN(c2nc(-c3ccncc3)[nH]c(=O)c2Cl)CC1 [Compound 43]	3.16 nM
CC(C)(C)OC(=O)N1CCC(c2nc(-c3ccnc(F)c3)[nH]c(=O)c2Cl)CC1 [Compound 25]	23.4 nM
O=C1CCN(c2nc(-c3ccncc3)[nH]c(=O)c2Cl)CCN1 [Compound 117]	5.25 nM
O=C(c1cn[nH]c1)N1CCC(c2nc(-c3ccncc3)[nH]c(=O)c2Cl)CC1 [Compound 68]	2.69 nM
CC(C)NC(=O)N1CCC(c2nc(-c3ccncc3)[nH]c(=O)c2Cl)CC1 [Compound 36, 4-[5-chloro-6-oxo-2-(4-pyridyl)-1-H-pyrimidin-4-yl]-N-isopropyl-piperidine-1-carboxamide]	25.7 nM
CC(C)(C)OC(=O)N1CCC(c2nc(-c3ccncc3)[nH]c(=O)c2Cl)CC1 [Compound 1, tert-Butyl 4-[5-chloro-6-oxo-2-(4-pyridyl)-1H-pyrimidin-4-yl]piperidine-1-carboxylate]	70.8 nM
O=c1[nH]c(-c2ccncc2)nc(N2CCN(Cc3cccc(Cl)c3)CC2)c1Cl [Compound 80]	123 nM
CC(=O)Nc1ccc(C(=O)N2CCC(c3nc(-c4ccncc4)[nH]c(=O)c3Cl)CC2)cc1 [Compound 62]	12 nM
CCCC(NC(=O)OC(C)(C)C)C(=O)N1CCC(c2nc(-c3ccncc3)[nH]c(=O)c2Cl)CC1 (centres unmarked) [Compound 74]	245 nM
COc1cccc(C2CN(c3nc(-c4ccncc4)[nH]c(=O)c3Cl)CCN2)c1 (centres unmarked) [Compound 179]	23.4 nM
O=C(c1cscn1)N1CCC(c2nc(-c3ccncc3)[nH]c(=O)c2Cl)CC1 [Compound 57]	3.47 nM
NC(=O)[C@H]1CCCN1c1nc(-c2ccncc2)[nH]c(=O)c1Cl [Compound 118]	380 nM
CC(C)(C)OC(=O)NCC(=O)N1CCC(c2nc(-c3ccncc3)[nH]c(=O)c2Cl)CC1 [Compound 35, tert-butyl-N-[2-[4-[5-chloro-6-oxo-2-(4-pyridyl)-1H-pyrimidin-4-yl]-1-piperidyl]-2-oxo-ethyl]carbamate]	22.9 nM
O=c1[nH]c(-c2ccnc(Cl)c2)nc(C2CCOCC2)c1Cl [Compound 23]	19.1 nM
N#Cc1c(C2CCOCC2)nc(-c2ccncc2)[nH]c1=O [Compound 403, 6-oxo-2-(4-pyridyl)-4-tetrahydropyran-4-yl-1H-pyrimidine-5-carbonitrile]	25.7 nM
CC(C)(O)[C@@H]1CN(c2nc(-c3ccncc3)[nH]c(=O)c2Cl)CCN1 [Compound 407, 5-chloro-4-[(3S)-3-(1-hydroxy-1-methyl-ethyl)piperazin-1-yl]-2-(4-pyridyl)-1H-pyrimidin-6-one]	60.3 nM
O=c1[nH]c(-c2ccncc2)nc(C2CCCCO2)c1Cl (centres unmarked) [Compound 15]	832 nM

Structure (SMILES)	IC50
O=c1[nH]c(-c2ccncc2)nc(N2CCC(O)C2)c1Cl (centres unmarked) [Compound 138]	100 nM
CC(C)(C)OC(=O)N1CCN(c2nc(-c3ccncc3)[nH]c(=O)c2Cl)CC1 [Compound 32]	100 nM
O=c1[nH]c(-c2ccncc2)nc(N2CC(CO)C2)c1Cl [Compound 124]	263 nM
O=c1[nH]c(-c2ccncc2)nc(N2CCN[C@@H](CCO)C2)c1Cl [Compound 175]	57.5 nM
Cc1cc(C(=O)N2CCC(c3nc(-c4ccncc4)[nH]c(=O)c3Cl)CC2)n(C)n1 [Compound 56]	1.62 nM
C[C@@H]1CN[C@@H](C)CN1c1nc(-c2ccncc2)[nH]c(=O)c1Cl [Compound 173]	85.1 nM
O=c1[nH]c(-c2ccncc2)nc(N2CCCCC2)c1Cl [Compound 26, 5-chloro-4-(1-piperidyl)-2-(4-pyridyl)-1H-pyrimidin-6-one]	6.76 nM
C[C@H](NC(=O)OC(C)(C)C)C(=O)N1CCC(c2nc(-c3ccncc3)[nH]c(=O)c2Cl)CC1 [Compound 71]	14.5 nM
CC(C)C1CC(c2nc(-c3ccncc3)[nH]c(=O)c2Cl)CCO1 (centres unmarked) [Compound 14]	123 nM
C[C@H]1CN(c2nc(-c3ccncc3)[nH]c(=O)c2Cl)[C@@H](C)CN1 [Compound 172]	12.6 nM
CC1(c2nc(-c3ccnc(F)c3)[nH]c(=O)c2Cl)CCOCC1 [Compound 10]	3.02 nM
N#Cc1ccc(C(=O)N2CCC(c3nc(-c4ccncc4)[nH]c(=O)c3Cl)CC2)cc1 [Compound 46]	1.41 nM
O=c1[nH]c(-c2ccncc2)nc(N2CCC(Cc3ccccc3)CC2)c1Cl [Compound 102]	52.5 nM
Cc1cc(C(=O)N2CCC(c3nc(-c4ccncc4)[nH]c(=O)c3Cl)CC2)nn1C [Compound 58]	0.912 nM
C[C@@H](NC(=O)OC(C)(C)C)C(=O)N1CCC(c2nc(-c3ccncc3)[nH]c(=O)c2Cl)CC1 [Compound 64]	3.98 nM
O=C1CN(c2nc(-c3ccncc3)[nH]c(=O)c2Cl)CCCN1 [Compound 141]	145 nM
CC(C)N1CCN(c2nc(-c3ccncc3)[nH]c(=O)c2Cl)CC1 [Compound 86]	138 nM
O=C(c1ccccc1)N1CCC(c2nc(-c3ccncc3)[nH]c(=O)c2Cl)CC1 [Compound 41]	6.92 nM
O=c1[nH]c(-c2ccncc2)nc(C2CCOCC2)c1F [Compound 5, 5-fluoro-2-(4-pyridyl)-4-tetrahydropyran-4-yl-1H-pyrimidin-6-one]	6.31 nM
O=C(Cc1c[nH]cn1)N1CCC(c2nc(-c3ccncc3)[nH]c(=O)c2Cl)CC1 [Compound 53]	5.75 nM
CC(C)C(=O)N1CCC(c2nc(-c3ccncc3)[nH]c(=O)c2Cl)CC1 [Compound 34, 5-chloro-4-[1-(2-methylpropanoyl)-4-piperidyl]-2-(4-pyridyl)-1H-pyrimidin-6-one]	13.2 nM
Cn1cnc(C(=O)N2CCC(c3nc(-c4ccncc4)[nH]c(=O)c3Cl)CC2)c1 [Compound 55]	2.09 nM
CN(C)C1CCN(c2nc(-c3ccncc3)[nH]c(=O)c2Cl)C1 (centres unmarked) [Compound 29]	1260 nM
O=C(c1ccco1)N1CCC(c2nc(-c3ccncc3)[nH]c(=O)c2Cl)CC1 [Compound 51]	5.13 nM
CN1CCC(c2nc(-c3ccncc3)[nH]c(=O)c2Cl)CC1 [Compound 79]	10.2 nM
O=C(C1CC1(F)F)N1CCC(c2nc(-c3ccncc3)[nH]c(=O)c2Cl)CC1 (centres unmarked) [Compound 70]	15.8 nM
